Inhibition and IC50 data for 16 molecules are collected here from patent US9029399B2, “17α-hydroxylase/C17,20-lyase inhibitors” (Novartis AG, priority 2011, dated 2015).

Chain of Human CYP17 enzyme (Cytochrome P450, 17-20 lyase) (P05093 whole entry): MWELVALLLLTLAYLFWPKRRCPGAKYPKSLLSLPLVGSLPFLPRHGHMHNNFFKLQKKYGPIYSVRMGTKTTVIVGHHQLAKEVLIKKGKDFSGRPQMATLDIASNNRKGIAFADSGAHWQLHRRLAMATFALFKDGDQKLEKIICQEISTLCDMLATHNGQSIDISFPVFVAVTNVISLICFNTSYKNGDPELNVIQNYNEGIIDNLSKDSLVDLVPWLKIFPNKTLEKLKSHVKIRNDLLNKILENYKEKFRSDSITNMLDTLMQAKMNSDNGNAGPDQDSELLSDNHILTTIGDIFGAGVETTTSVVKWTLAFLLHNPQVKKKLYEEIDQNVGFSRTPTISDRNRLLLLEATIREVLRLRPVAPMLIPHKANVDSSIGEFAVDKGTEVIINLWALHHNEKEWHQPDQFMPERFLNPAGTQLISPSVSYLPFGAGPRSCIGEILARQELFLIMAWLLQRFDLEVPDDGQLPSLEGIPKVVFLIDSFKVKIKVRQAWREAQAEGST

One assay addresses Human CYP17 enzyme (Cytochrome P450, 17-20 lyase) (Homo sapiens (Human), UniProt P05093). The assay is described as follows: CYP17 lyase assay, recombinant human CYP17 enzyme, 17-α-hydroxy pregnenolone [21-3H] substrate. In kind it is biochemical.
Conditions: not given
From the text:
1) Cvtochrome P450, 17-20 Lyase (CYP17-Lyase) Assay Development Using Recombinant Human CYP17 Enzyme and 17-α-Hydroxy Pregnenolone [21-3H] as the Substrate
Cytochrome P450, 17-α-Hydroxylase, 17-20 lyase (CYP17) is a multi functional enzyme that plays a key role in the biosynthesis of steroid hormones. […] In the hydroxylation reaction, it converts progesterone and pregnenolone to the corresponding hydroxylated products 17-α-hydroxy progesterone and 17-α-hydroxy pregnenolone. In the lyase reaction, it catalyzes the conversion of these hydroxylated substrates to Androstenedione and Dehydroepiandrosterone (DHEA) respectively. In the Cyp17 lyase assay described here, the conversion of 17-α-hydroxy pregnenolone to Dehydroepiandrosterone and acetic acid is being monitored.
The conversion of 17-α-hydroxy pregnenolone to Dehydroepiandrosterone is accompanied by the release of acetic acid. In the Cyp17 lyase assay, 17-α-hydroxy pregnenolone labeled with tritium (3H) at position 21 is used as the substrate. Chloroform extraction removes the radioactive steroids and acetic acid is taken into aqueous layer. The tritiated acetic acid released in the assay thus extracted is quantified to determine the enzyme activity.
Human Cyp 17 gene was cloned and expressed in Adenoviral expression system in A549 cell lines. The purified cell membrane preparations were used as the source for Human CYP17 enzyme. Total protein concentration: 8 mg/mL.
For routine screening, the assay was set up with 16 μg of enzyme in 50 μL reaction volume. 17α-hydroxy pregnenolone [21-3H] was added to a final concentration of […] NADPH is used at a final concentration of 4.2 mM. Total reaction volume was made up to 50 μL with 50 mM Phosphate buffer pH 7.5. The reaction mixture was incubated at room temperature for 90 minutes with gentle shaking. The reaction was stopped by the addition of 100 μl, of buffer. 500 μl, of 5% freshly prepared activated charcoal was added to the solution and mixed well by vortexing. The samples were centrifuged at 17568×g for 5 minutes. (14000 rpm). The supernatant was carefully transferred to fresh tube and 1.3 mL of scintillation fluid was added, mixed by vortexing.
The measurements were carried out in 2.0 mL Eppendorf™ tubes. Each tube was counted for 1 minute. The amount of tritiated acetic acid released is proportional to the lyase activity. Percent lyase activity in presence of inhibitor was calculated using the formula given below.
[formula] Sample: Enzyme reaction in presence of inhibitor. Positive control: Enzyme reaction without inhibitor but containing DMSO at 1% final concentration. Blank—Contains all reagents except enzyme. % Inhibition=100%−% Lyase activity
For IC50 determination, the % inhibition was plotted as a function of inhibitor concentration. The data was fitted to sigmoidal equation using Graphpad Prism® software IV to generate IC50 values.
For the molecule `O=C1N(c2ccnc(C(F)(F)F)c2)CCN1c1c(C2CC2)ccnc1O` [Example 50A, 1-(4-cyclopropyl-2-hydroxypyridin-3-yl)-3-(2-(trifluoromethyl)pyridin-4-yl)imidazolidin-2-one], the inhibition at 10 µM was 51%.

Still in this assay, the particulars now being: recombinant human CYP17, first value of Human/Rat cell; read-out: Lyase IC 50 Human.
`O=C1N(c2cc3cc(F)ccc3s2)CCN1c1cnccc1C1CC1` [Example 22A, 1-(4-cyclopropylpyridin-3-yl)-3-(5-fluorobenzo[b]thiophen-2-yl)imidazolidin-2-one]: the IC50 stood at 7 nM.

As to `O=C1N(c2ccnc(C3CC3)c2)CCN1c1cnccc1C1CC1` [Example 39A, 1-(4-cyclopropylpyridin-3-yl)-3-(2-cyclopropylpyridin-4-yl)imidazolidin-2-one], the IC50 came out at 12 nM.

Regarding `O=C1N(c2cc3sccc3cc2F)CCN1c1cnccc1C1CC1` [Example 27A, 1-(4-cyclopropyl-pyridin-3-yl)-3-(5-fluoro-benzo[b]thiophen-6-yl)imidazolidin-2-one], the IC50 worked out at 461 nM.

`O=C1N(c2cc3ccsc3cc2F)CCN1c1cnccc1C1CC1` [Example 28A, 1-(4-cyclopropylpyridin-3-yl)-3-(6-fluorobenzo[b]thiophen-5-yl)imidazolidin-2-one]: the IC50 is 548 nM.

Regarding `O=C1N(c2cc(C(F)(F)F)nc(C(F)(F)F)c2)CCN1c1cnccc1C1CC1` [Example 49A, 1-(2,6-bis(trifluoromethyl)pyridin-4-yl)-3-(4-cyclopropylpyridin-3-yl)imidazolidin-2-one], the IC50 was 6 nM.

In the case of `O=C1N(c2ccc3sc(Cl)cc3c2)CCN1c1cnccc1C1CC1` [Example 20A, 1-(2-chlorobenzo[b]thiophen-5-yl)-3-(4-cyclopropylpyridin-3-yl)imidazolidin-2-one], the IC50 was 106 nM.

Consider `O=C1N(c2cc(C3CC3)ncn2)CCN1c1cnccc1C1CC1` [Example 38A, 1-(4-cyclopropylpyridin-3-yl)-3-(6-cyclopropylpyrimidin-4-yl)imidazolidin-2-one], for which the IC50 worked out at 48 nM.

Regarding `O=C1N(c2ccc3sccc3c2)CCN1c1cnccc1C1CC1` [Example 4A, 1-(benzo[b]thiophen-5-yl)-3-(4-cyclopropylpyridin-3-yl)imidazolidin-2-one], the IC50 came to 13 nM.

As for `O=C1N(c2ccc3c(C(F)(F)F)csc3c2)CCN1c1cnccc1C1CC1` [Example 23A, 1-(4-cyclopropylpyridin-3-yl)-3-(3-(trifluoromethyl)benzo[b]thiophen-6-yl)imidazolidin-2-one], the IC50 turned out to be 1210 nM.

In the case of `O=C1N(c2ccnc(C(F)(F)F)n2)CCN1c1cnccc1C1CC1` [Example 12A, 1-(4-cyclopropylpyridin-3-yl)-3-(2-(trifluoromethyl)pyrimidin-4-yl)imidazolidin-2-one], the IC50 came to 99 nM.

On to `O=C1N(c2ccc3ccccc3c2)CCN1c1cnccc1C1CC1` [Example 3A, 1-(4-cyclopropylpyridin-3-yl)-3-(naphthalen-2-yl)imidazolidin-2-one], for which the IC50 was found to be 26 nM.

`O=C1N(c2ccnc(Cl)c2)CCN1c1cnccc1C1(O)CCC1` [Example 33A, 1-(2-chloro-pyridin-4-yl)-3-[4-(1-hydroxy-cyclobutyl)-pyridin-3-yl]imidazolidin-2-one]: the IC50 worked out at 45 nM.

For the molecule `O=C1N(c2cc(Cl)nc(C3CC3)c2)CCN1c1cnccc1C1CC1` [Example 47A, 1-(2-chloro-6-cyclopropylpyridin-4-yl)-3-(4-cyclopropylpyridin-3-yl)imidazolidin-2-one], the IC50 came to 5.2 nM.

`O=C1N(c2ccc3cc(F)sc3c2)CCN1c1cnccc1C1CC1` [Example 25A, 1-(4-cyclopropyl-pyridin-3-yl)-3-(2-fluoro-benzo(b)thiophene-6-yl)imidazolidin-2-one]: the IC50 was found to be 30 nM.

With `O=C1N(c2cc3ccccc3s2)CCN1c1cnccc1C1CC1` [Example 6A, 1-(benzo[b]thiophen-2-yl)-3-(4-cyclopropylpyridin-3-yl)imidazolidin-2-one], the IC50 worked out at 13 nM.
